This passage reports IC50, Activity and CLint scaled results from ChEMBL document CHEMBL5390231, “Development of small molecule inhibitors targeting RNA helicase DHX33 as anti-cancer agents” (Bioorg Med Chem Lett, 2023).

The subject of one series is U-251. The series is described as follows: Antiproliferative activity against human U-251MG cells overexpressing DHX33 assessed as inhibition of cell growth measured after 48 hrs by CCK-8 assay. Type of series: functional, cell-based. The following applies: U-251, 48 h. On the technique in general: Tetrazolium assays rely on reduction of a dye to a coloured formazan, in cell work by metabolically active cells.

For series [1], the system named is A549. Briefly: Downregulation of CyclinB2 mRNA expression in human A549 cells by SYBR dye based RT-PCR analysis. Type of series: functional, cell-based.
The test system of series [2] is A549. Briefly: Downregulation of CyclinE2 mRNA expression in human A549 cells by SYBR dye based RT-PCR analysis. Type of series: functional, cell-based.
The subject of series [3] is A549. The series is described as follows: Downregulation of MCM2 mRNA expression in human A549 cells by SYBR dye based RT-PCR analysis. The class given is functional, cell-based.
Series [4] deals with A549. The series is described as follows: Downregulation of MCM3 mRNA expression in human A549 cells by SYBR dye based RT-PCR analysis. The class given is functional, cell-based.
The test system of series [5] is A549. The series is described as follows: Downregulation of MCM4 mRNA expression in human A549 cells by SYBR dye based RT-PCR analysis. Type of series: functional, cell-based.
Series [6] has as its system A549. The series is described as follows: Downregulation of MCM7 mRNA expression in human A549 cells by SYBR dye based RT-PCR analysis. Type of series: functional, cell-based.
In series [7] the test system is A549. Briefly: Downregulation of E2F1 mRNA expression in human A549 cells by SYBR dye based RT-PCR analysis. The class given is functional, cell-based.
The subject of series [8] is A549. Briefly: Downregulation of FEN1 mRNA expression in human A549 cells by SYBR dye based RT-PCR analysis. Type of series: functional, cell-based.
Series [9] deals with T1, ATP-dependent RNA helicase DHX33 (Mus musculus, UniProt Q80VY9).
T1 sequence (Q80VY9 whole entry): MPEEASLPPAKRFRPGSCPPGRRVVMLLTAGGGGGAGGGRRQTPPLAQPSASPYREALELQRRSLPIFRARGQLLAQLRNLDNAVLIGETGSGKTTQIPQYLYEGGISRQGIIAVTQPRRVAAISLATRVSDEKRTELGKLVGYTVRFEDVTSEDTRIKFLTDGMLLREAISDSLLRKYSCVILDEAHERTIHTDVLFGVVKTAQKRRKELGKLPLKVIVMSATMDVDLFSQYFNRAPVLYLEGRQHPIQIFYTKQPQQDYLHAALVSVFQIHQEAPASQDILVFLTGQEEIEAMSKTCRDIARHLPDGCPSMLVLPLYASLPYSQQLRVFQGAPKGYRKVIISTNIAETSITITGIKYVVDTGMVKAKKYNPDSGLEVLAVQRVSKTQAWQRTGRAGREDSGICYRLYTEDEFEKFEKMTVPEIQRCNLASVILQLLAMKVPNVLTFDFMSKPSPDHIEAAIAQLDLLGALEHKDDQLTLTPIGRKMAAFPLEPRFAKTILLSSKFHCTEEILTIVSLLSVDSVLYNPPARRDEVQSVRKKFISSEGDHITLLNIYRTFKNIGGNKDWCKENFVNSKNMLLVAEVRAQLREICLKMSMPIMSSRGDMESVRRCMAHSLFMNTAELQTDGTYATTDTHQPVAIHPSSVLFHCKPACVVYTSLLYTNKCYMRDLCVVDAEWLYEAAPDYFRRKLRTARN
The series is described as follows: Inhibition of N-terminal/C-terminal 6x His-tagged wild type recombinant mouse DHX33 transformed in Escherichia coli BL21(DE3)pLysS cells.

The target in series [10] is T2, Probable ATP-dependent RNA helicase DDX59 (Homo sapiens, UniProt Q5T1V6).
T2 sequence (Q5T1V6 whole entry): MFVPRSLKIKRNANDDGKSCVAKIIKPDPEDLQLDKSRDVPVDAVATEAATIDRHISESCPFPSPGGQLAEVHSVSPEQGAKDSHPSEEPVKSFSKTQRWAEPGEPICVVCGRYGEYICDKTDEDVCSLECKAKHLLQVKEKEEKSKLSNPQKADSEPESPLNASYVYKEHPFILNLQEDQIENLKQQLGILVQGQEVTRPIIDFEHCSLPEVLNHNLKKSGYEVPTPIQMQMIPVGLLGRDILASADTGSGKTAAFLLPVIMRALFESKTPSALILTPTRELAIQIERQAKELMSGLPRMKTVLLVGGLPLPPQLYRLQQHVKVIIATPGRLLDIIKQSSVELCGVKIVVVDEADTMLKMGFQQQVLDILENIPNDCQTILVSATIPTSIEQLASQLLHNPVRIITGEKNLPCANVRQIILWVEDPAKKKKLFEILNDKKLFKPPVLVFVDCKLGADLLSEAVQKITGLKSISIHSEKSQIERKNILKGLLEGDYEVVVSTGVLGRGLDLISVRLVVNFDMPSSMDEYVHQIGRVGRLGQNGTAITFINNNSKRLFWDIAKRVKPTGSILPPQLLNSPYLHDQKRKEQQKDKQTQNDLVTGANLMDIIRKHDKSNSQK
The series is described as follows: Inhibition of C-terminal 6xHis-tagged human recombinant DDX59 transformed in Escherichia coli BL21(DE3)pLysS cells.

The target in series [11] is T3, Putative pre-mRNA-splicing factor ATP-dependent RNA helicase DHX32 (Homo sapiens, UniProt Q7L7V1).
T3 sequence (Q7L7V1 whole entry): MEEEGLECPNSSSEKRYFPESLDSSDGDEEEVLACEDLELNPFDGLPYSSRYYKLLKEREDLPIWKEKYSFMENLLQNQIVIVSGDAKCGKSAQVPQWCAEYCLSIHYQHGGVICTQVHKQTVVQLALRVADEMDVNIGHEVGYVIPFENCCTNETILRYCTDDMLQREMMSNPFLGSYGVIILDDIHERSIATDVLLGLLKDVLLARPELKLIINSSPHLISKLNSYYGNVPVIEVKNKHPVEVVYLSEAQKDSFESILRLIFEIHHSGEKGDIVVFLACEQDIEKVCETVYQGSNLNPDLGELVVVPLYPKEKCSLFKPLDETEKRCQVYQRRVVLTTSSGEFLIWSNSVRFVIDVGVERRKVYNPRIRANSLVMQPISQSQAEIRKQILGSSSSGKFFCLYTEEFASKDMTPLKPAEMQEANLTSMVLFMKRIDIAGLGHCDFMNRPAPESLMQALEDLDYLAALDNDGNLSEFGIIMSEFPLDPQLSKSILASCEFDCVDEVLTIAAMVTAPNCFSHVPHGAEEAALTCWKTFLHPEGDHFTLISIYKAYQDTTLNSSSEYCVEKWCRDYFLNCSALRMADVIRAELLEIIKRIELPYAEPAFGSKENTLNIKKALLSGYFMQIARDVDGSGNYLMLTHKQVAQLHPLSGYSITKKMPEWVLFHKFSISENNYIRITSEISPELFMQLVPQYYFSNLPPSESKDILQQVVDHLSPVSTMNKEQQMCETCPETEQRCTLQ
Briefly: Inhibition of N-terminal thioredoxin-tagged human recombinant DHX32 transformed in Escherichia coli BL21(DE3)pLysS cells.

Series [12] deals with T4, Probable ATP-dependent RNA helicase DDX6 (Homo sapiens, UniProt P26196).
T4 sequence (P26196 whole entry): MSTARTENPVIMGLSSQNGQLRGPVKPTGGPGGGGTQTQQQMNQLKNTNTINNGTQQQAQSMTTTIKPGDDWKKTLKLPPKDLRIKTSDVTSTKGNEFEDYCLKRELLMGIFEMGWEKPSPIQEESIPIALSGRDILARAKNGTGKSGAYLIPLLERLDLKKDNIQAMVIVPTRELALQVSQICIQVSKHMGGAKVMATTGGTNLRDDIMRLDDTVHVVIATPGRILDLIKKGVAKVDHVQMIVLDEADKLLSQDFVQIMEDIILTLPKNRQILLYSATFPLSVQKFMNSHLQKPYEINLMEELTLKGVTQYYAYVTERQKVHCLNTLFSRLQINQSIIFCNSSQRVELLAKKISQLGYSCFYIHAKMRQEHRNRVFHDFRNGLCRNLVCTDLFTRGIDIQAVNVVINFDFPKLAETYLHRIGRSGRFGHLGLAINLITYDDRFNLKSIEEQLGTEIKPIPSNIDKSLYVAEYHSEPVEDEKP
Briefly: Inhibition of N-terminal thioredoxin-tagged human recombinant DDX6 transformed in Escherichia coli BL21(DE3)pLysS cells.

Series [13] is described as follows: Microsomal stability in human liver microsome assessed as intrinsic clearance. The class given is ADME. The settings on record: liver microsomes, read-out: CLH.

Active and inactive are the calls of the source. The rule behind the calls is not given here.

As a reminder, the IC50 is the concentration at which inhibition is half-maximal.

Regarding `COc1ccc2nc(NC(=O)c3cc(C)n(-c4oc(C)nc4C#N)c3C)[nH]c2c1`, the IC50 in the series with U-251 stood at 0.07 µM.

Regarding `Cc1oc(-n2c(C)cc(/C=C(\C#N)c3nc4ccccc4[nH]3)c2C)c(C#N)c1C`, the result in the series with A549 [1], with A549 [2], with A549 [3], in the series with A549 [4], with A549 [5] and in the series on A549 [6] was Active. For the same compound, the outcome in the series on A549 [7] and in the series on A549 [8] was Active. For the same compound, the 50% inhibitory concentration (IC50) in [9] was 0.52 µM; in series [10] it was greater than 5 µM; in series [11], greater than 5 µM; in series [12] it was greater than 4 µM; with U-251, 7.82 µM.

For the compound `COc1cc2nc(/C(C#N)=C/c3cc(C)n(-c4sc(C)cc4C(N)=O)c3C)[nH]c2cn1`, the IC50 with U-251 was found to be 0.18 µM. In series [13], the CLint scaled came out at 140 mL/min/kg.

`COc1cc2nc(/C(C#N)=C/c3cc(C)n(-c4sc(C)cc4C#N)c3C)[nH]c2cn1`: the IC50 in the series with U-251 is 0.02 µM. Also, the CLint scaled in [13] is 187 mL/min/kg.

As to `COc1cccc2nc(/C(C#N)=C/c3cc(C)n(-c4oc(C)c(C)c4C#N)c3C)[nH]c12`, the half-inhibitory concentration (IC50) in the series on U-251 was greater than 10 µM.

As to `COc1cncc2nc(/C(C#N)=C/c3cc(C)n(-c4sc(C)c(C)c4C#N)c3C)[nH]c12`, in the series on U-251, the IC50 is 4.68 µM.

Turning to `COc1ccc2nc(/C(C#N)=C/c3cc(C)n(-c4oc(C)c(C)c4C#N)c3C)[nH]c2c1`, the IC50 in the series on U-251 was 0.54 µM.

On to `COc1ccc2nc(/C(C#N)=C/c3cc(C)n(-c4oc(C)c(C)c4C#N)c3C)[nH]c2n1`, for which the concentration for half-maximal inhibition (IC50) in the series on U-251 was 4.08 µM.

On to `COc1cc2nc(/C(C#N)=C/c3cc(C)n(-c4oc(C)c(C)c4C#N)c3C)[nH]c2cn1`, for which, in the series on U-251, the half-inhibitory concentration (IC50) was found to be 0.07 µM.

Regarding `COc1cc2nc(/C(C#N)=C/c3cc(C)n(-c4sc(C)c(C)c4C#N)c3C)[nH]c2cn1`, the half-inhibitory concentration (IC50) in the series with U-251 amounted to 0.03 µM.

For the compound `COc1nccc2nc(/C(C#N)=C/c3cc(C)n(-c4sc(C)c(C)c4C#N)c3C)[nH]c12`, the concentration for half-maximal inhibition (IC50) in the series with U-251 came out at 3.97 µM.

With `Cc1oc(-n2c(C)cc(/C=C(\C#N)c3nc4ccc(F)cc4[nH]3)c2C)c(C#N)c1C`, the concentration for half-maximal inhibition (IC50) with U-251 was 3.2 µM.

As for `COc1ccc2nc(/C(C#N)=C/c3cc(C)n(-c4sc(C)cc4C#N)c3C)[nH]c2c1`, the half-maximal inhibitory concentration (IC50) in the series with U-251 came out at 0.11 µM. For the same compound, the CLint scaled in series [13] is 290 mL/min/kg.

Regarding `COc1cc2nc(/C(C#N)=C/c3cc(C)n(-c4oc(C)c(C)c4C#N)c3C)[nH]c2cc1OC`, the concentration for half-maximal inhibition (IC50) with U-251 came to 1.54 µM.

With `Cc1ccc2nc(/C(C#N)=C/c3cc(C)n(-c4oc(C)c(C)c4C#N)c3C)[nH]c2c1`, the half-inhibitory concentration (IC50) with U-251 was 2.44 µM.
